Results from patent publication US20180078655A1, “IMMUNOCONJUGATES FOR SPECIFIC INDUCTION OF T CELL CYTOTOXICITY AGAINST A TARGET CELL” (priority 2015, published 2018).

Tested on: A-375, PC-3, HCT-116 tumor cell lines
Assay: LDH release assay and xCELLigence, FLU peptide immunoconjugate
Assay type: cell-based, human
Settings: xCELLigence, 6, 10 and 18 hours

**Q.** CTELKLSDY [free peptide] was tested. Which “tumor cell killing over the course of time” value did it give?
**A.** usually decreased in higher incubation times
